Changes are numbered by the printed parent chain. Some results are limits rather than exact numbers.

The Emax is the maximal effect, on the per cent scale that the assay sets. What is called EC50 is the concentration needed to bring the measured effect to its halfway point. Read a low EC50 as an effect from little substance.

Holding throughout (format): cell-based
Test [1] deals with T1, GPR139 H187A^5×43 (Homo sapiens, UniProt Q6DWJ6, H187A).
T1 construct: mGluR5 signal peptide (N); expressed in transfected cells; host or cells: HEK293
T1 sequence (Q6DWJ6 2-353 H187A limits assumed): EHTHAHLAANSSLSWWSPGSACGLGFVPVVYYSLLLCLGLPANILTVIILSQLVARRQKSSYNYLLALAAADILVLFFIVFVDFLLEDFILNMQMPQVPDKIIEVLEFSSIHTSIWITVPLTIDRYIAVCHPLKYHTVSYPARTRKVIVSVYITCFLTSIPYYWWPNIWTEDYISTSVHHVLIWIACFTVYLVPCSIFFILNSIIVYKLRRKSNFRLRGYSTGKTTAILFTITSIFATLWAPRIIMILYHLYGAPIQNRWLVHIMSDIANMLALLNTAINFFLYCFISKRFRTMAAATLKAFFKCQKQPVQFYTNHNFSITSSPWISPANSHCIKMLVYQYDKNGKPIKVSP
The test can be described thus: Fluo-4 Ca2+-assay, GPR139 mutant H187A. The conditions noted are these: for EC50: H187A mutant (surface expression 36% of WT). An excerpt: (§1) To study the influence of specific amino acids in the predicted binding pocket on receptor function, the desired mutations were introduced into an N-terminally c-myc-tagged wild type human GPR139 (NM_001002911.3) in the pEGFP-N1 vector (BD Biosciences)[32], [33]. As previously described, these plasmids carry the signal peptide of mGluR5 to promote cell surface expression followed by a c-myc epitope to enable detection of total and surface expression by ELISA, followed by an engineered MluI and NotI site for easy insertion of the receptor of interest. Furthermore, the start-codon in the GPR139 sequence was deleted to ensure c-myc-tagging. Mutagenesis was designed in Serial Cloner 2.6 (© Franck Perez [SerialBasics]) and carried out by GenScript (USA). All mutated residues are illustrated in Supplementary Fig. 1b. An untagged GPR139(WT) in pEGFP-N1 was also generated to ensure that the c-myc-tag had no influence on GPR139(WT) function.
All GPR139 mutants were transfected into HEK293 cells. The HEK293 cells were grown in Dulbecco’s modified Eagle’s medium (DMEM) (Gibco, 41965) supplemented with 10% dialyzed fetal bovine serum (Gibco, 26400, United States origin), 100 units/mL penicillin and 100 μg/mL streptomycin (Gibco, 15140). HEK293 cells were reverse transfected using Lipofectamine2000 (Invitrogen). More specifically two mixtures were made: 1) 10 ng DNA/well + 25 μL Opti-MEM/well and 2) […] Lipofectamine2000/well + 25 μL Opti-MEM/well. The two mixtures were mixed and 50 μL/well was added directly in black 96-well plates with flat clear bottoms for the Fluo-4 Ca^2+-assay (Corning, Falcon, 353219) or in white Opaque 96-well Microplate (PerkinElmer Life, 6005680) for ELISA. 100 μL containing 20,000 cells were added to each well and incubated 48 hours before assays. All plates were coated with poly-D-lysine.
Compound 1a (1a) was kindly provided by H. Lundbeck A/S, Denmark. […]
(§2) The Ca^2+ measurements were preformed using the Fluo-4 NW Calcium Assay Kit (Invitrogen, Molecular Probes, F36206) as previously described. […] Intracellular calcium changes were recorded as indicated on either a NOVOstar (BMG Labtech) at 37 °C with an excitation filter of 485 nm and an emission filters 520 nm or a FlexStation 3 Benchtop Multi-Mode Microplate Reader (Molecular Devices) at 37 °C with an excitation wavelength of 485 nm and emission of 525 nm.
(§3) All pharmacological data have been analyzed by using Prism 6.0 (GraphPad Software Inc., San Diego). […] Changes in potency (pEC50) and span of myc-GPR139(WT) in comparison to untagged GPR139(WT) was statistically analyzed with a paired t-test and significance was accepted at p < 0.05. […]

In test [2] the target is T2, untagged GPR139(WT) (Homo sapiens, UniProt Q6DWJ6).
T2 construct: expressed in transfected cells; host or cells: HEK293
T2 sequence (Q6DWJ6 1-353): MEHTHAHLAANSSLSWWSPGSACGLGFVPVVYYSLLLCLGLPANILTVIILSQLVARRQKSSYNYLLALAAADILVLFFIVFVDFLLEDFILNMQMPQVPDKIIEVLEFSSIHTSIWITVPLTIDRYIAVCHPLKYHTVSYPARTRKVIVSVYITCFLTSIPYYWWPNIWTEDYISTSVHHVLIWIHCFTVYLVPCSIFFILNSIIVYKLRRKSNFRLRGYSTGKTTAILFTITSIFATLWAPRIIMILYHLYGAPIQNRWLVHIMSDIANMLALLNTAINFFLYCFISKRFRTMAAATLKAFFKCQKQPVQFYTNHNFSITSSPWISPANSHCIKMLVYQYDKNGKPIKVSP
Put plainly: Fluo-4 Ca2+-assay, untagged wild-type GPR139 in HEK293. The conditions noted are these: untagged WT receptor.
From the text: as §1, with “Mutagenesis was designed in Serial Cloner 2.6 (© Franck Perez [SerialBasics]) and carried out by GenScript (USA). All mutated residues are illustrated in Supplementary Fig. 1b. An untagged GPR139(WT) in pEGFP-N1 was also generated to ensure that the c-myc-tag had no influence on GPR139(WT) function.” left out
as §2, §3

Test [3] deals with T3, GPR139 E105A3x29 (Homo sapiens, UniProt Q6DWJ6, E105A).
T3 construct: mGluR5 signal peptide (N); expressed in transfected cells; host or cells: HEK293
T3 sequence (Q6DWJ6 2-353 E105A limits assumed): T1 sequence (Q6DWJ6 2-353 H187A limits assumed) with E104A, A186H
The test can be described thus: Fluo-4 Ca2+-assay, GPR139 mutant E105A.
From the text: as §1, with “Mutagenesis was designed in Serial Cloner 2.6 (© Franck Perez [SerialBasics]) and carried out by GenScript (USA). All mutated residues are illustrated in Supplementary Fig. 1b. An untagged GPR139(WT) in pEGFP-N1 was also generated to ensure that the c-myc-tag had no influence on GPR139(WT) function.” left out
as §2, §3

With `C[C@@H](NC(=O)CNC(=O)c1cccc(Cl)c1)c1ccccc1` (racemic) [Compound 7c], in test [1], the Emax was 60 ± 9% and the response was half-maximal at 6.61 µM (EC50).

As for `COc1cc(OC)cc(C(=O)NNC(=O)Nc2cccc3ccccc23)c1` [Compound 1a], the results for the EC50 in test [2], in test [3] (E105A mutant) and in test [1] were 0.772 µM, 0.129 µM and more than 7.94 µM, respectively. For the same compound, the maximum response (Emax) in test [3] (E105A, normalized to buffer (0%) and 8 µM 1a (100%)) was determined as 288 ± 27%. Besides, the Emax at 8 µM in test [1] (H187A, at 8 μM, normalized to buffer (0%) and 8 μM 1a (100%) on WT) is 35 ± 5%.

The values are drawn from paper PMC5430874 (Scientific Reports, 2017).
